# Measurements published in ChEMBL document CHEMBL1150688, “Guieranone A, a naphthyl butenone from the leaves of Guiera senegalensis with antifungal activity” (2003).
# The source made the active and inactive calls. The rule behind the calls is not given here.
# Test system: Cladosporium cucumerinum
# Assay: Antifungal activity against Cladosporium cucumerinum assessed as drug level causing inhibition of fungal growth after 2 days by TLC based bioautography
# Type: functional
SMILES,Activity,INH
COc1cc(OC)c2c(c1)cc(OC)c1c(=O)cc(C)oc12,inactive,
COc1cc(OC)c2c3c(c(OC)cc2c1)C(=O)CC(C)O3 (stereo not drawn),inactive,
C/C=C/C(=O)c1c(OC)cc2cc(OC)cc(OC)c2c1OC [GUIERANONE A],,1 µg
